How the values were obtained:
[1] = target: recombinant human ASK1 (hASK1) catalytic domain (Homo sapiens (Human), UniProt Q99683); assay: ASK1 enzymatic assay (ADP-Glo Kinase Assay); assay type: biochemical; details: for IC50: hASK1 0.25 nM, MKK6 300 nM, ATP 100 uM, Mean±Standard Deviation; for Efficacy (%): hASK1 enzymatic assay, standard ASK1 inhibitor = 100% inhibition, DMSO vehicle = 0%
From the text: ASK1 Inhibitor Effect Determined by ASK1 Enzymatic Assay
The purpose of this assay is to determine the effect of ASK1 inhibitors on the production of ADP by ASK1. The recombinant human ASK1 (hASK1) catalytic domain tagged with Glutathione S-transferase is used, and histidine-tagged full-length human MAP kinase kinase 6 (MKK6) and ATP are the substrate and cofactor, respectively.
The assay is done using an ADP-Glo™ Kinase Assay Kit (Promega, Catalog #V9102) according to the manufacturer's protocol with the following modifications. Briefly, hASK1 (0.25 nM) and MKK6 (300 nM) in a buffer (10 mM MOPS pH 7.0; 10 mM Mg-Acetate; 1 mM DTT; 0.025% NP-40; 0.05% BSA; 1.5% glycerol) are incubated with ASK1 inhibitors at varying concentrations ranging from 10.00 uM to 0.17 nM for 15 minutes, followed by incubation with ATP (100 uM) for 30 minutes at room temperature. ADP-Glo™ Reagent is added to terminate the kinase reaction and deplete the remaining ATP. The Kinase Detection Reagent is then added to convert ADP to ATP. The newly synthesized ATP is measured using a luciferase/luciferin reaction, and the luminescence determined by Envision (PerkinElmer). The luminescence intensities are analyzed by GeneData, and fit to a 4 parameter dose response-inhibitor logistics curve to determine IC50 values, using the effects of 5-(4-cyclopropyl-1H-imidazol-1-yl)-2-fluoro-4-methyl-N-{6-[4-(propan-2-yl)-4H-1,2,4-triazol-3-yl]pyridin-2-yl}benzamide as a standard and DMSO vehicle for 100% and 0% inhibition, respectively.

human ASK1 = human ASK1 (Homo sapiens (Human), UniProt Q99683); assay: ASK1 autophosphorylation (Thr838) assay in HEK293 cells overexpressing human ASK1; assay type: cell-based; details: for IC50: H2O2-stimulated (1 mM, 10 minutes) ASK1 autophosphorylation at Thr838, HEK293 cells, Mean±Standard Deviation, read-out: HEK pASK1 IC50; for Efficacy (%): HEK pASK1 assay, standard ASK1 inhibitor = 100% inhibition, DMSO vehicle = 0%
human ASK1, sequence (Q99683 whole entry): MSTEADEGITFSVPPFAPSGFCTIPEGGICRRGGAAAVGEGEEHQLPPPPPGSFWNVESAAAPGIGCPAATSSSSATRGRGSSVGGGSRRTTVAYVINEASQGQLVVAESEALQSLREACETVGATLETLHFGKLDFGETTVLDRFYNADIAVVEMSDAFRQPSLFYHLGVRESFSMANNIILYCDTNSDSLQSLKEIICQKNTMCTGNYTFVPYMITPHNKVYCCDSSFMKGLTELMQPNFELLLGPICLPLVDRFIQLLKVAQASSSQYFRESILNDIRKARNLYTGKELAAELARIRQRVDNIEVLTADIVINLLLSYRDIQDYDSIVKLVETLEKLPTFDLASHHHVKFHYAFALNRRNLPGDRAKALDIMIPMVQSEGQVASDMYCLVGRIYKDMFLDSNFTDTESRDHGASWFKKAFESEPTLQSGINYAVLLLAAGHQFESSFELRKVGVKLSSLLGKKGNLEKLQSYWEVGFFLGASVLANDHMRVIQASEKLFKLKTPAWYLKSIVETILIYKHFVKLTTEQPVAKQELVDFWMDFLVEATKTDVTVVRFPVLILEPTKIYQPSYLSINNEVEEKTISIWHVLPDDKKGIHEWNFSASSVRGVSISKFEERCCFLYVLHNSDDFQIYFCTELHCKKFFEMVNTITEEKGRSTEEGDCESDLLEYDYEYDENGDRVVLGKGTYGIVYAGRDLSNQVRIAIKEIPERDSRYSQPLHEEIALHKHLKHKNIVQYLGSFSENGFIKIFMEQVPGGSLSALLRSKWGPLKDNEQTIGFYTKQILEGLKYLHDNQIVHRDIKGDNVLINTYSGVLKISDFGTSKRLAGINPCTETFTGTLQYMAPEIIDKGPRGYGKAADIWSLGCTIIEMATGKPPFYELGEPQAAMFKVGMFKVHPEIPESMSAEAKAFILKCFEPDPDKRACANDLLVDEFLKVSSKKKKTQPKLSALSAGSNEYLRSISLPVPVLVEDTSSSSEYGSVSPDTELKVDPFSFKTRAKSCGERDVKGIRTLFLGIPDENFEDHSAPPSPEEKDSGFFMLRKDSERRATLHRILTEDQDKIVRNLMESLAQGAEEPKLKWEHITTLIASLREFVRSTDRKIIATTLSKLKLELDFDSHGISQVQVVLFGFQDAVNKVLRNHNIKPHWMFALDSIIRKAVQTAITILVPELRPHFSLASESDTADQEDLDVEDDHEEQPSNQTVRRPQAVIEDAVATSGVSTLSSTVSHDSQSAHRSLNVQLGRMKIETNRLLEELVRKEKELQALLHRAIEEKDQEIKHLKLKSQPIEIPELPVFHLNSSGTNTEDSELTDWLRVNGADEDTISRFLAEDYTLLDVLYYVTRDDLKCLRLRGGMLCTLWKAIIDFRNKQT

recombinant human ASK1 (hASK1) catalytic domain, sequence (Q99683 680-938): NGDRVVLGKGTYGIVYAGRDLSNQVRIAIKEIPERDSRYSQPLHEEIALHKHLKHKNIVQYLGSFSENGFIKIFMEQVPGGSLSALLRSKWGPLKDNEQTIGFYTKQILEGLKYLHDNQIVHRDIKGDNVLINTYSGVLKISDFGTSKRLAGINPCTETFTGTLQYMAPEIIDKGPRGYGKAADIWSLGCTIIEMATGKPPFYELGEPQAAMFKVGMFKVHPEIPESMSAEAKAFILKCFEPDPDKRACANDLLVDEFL

| IC50 [1] [nM] | Efficacy (%) [1] [%] | IC50 (human ASK1) [nM] | Efficacy (%) (human ASK1) | SMILES |
| --- | --- | --- | --- | --- |
| 36 ± 6.25 | 100 | 1400 | 80.5 | CC(C)n1cnnc1-c1cccc(N2CCN(CCc3cccnc3)C2=O)n1 [Example 1, 1-[6-(4-Isopropyl-1,2,4-triazol-3-yl)-2-pyridyl]-3-[2-(3-pyridyl)ethyl]imidazolidin-2-one] |
| 14 ± 2.61 | 100 | 886 ± 65.4 | 96.0 | CC(C)n1cnnc1-c1cccc(N2CCN([C@H](C)Cn3cnc(C4CC4)c3)C2=O)n1 [Example 2, 1-[(1R)-2-(4-Cyclopropylimidazol-1-yl)-1-methyl-ethyl]-3-[6-(4-isopropyl-1,2,4-triazol-3-yl)-2-pyridyl]imidazolidin-2-one] |
| 10.8 ± 2.01 | 100 | 1130 ± 300 | 101 | CC(C)n1cnnc1-c1cccc(N2CCN(CCn3cnc(C4CC4)c3)C2=O)n1 [Example 3, 1-[2-(4-Cyclopropylimidazol-1-yl)ethyl]-3-[6-(4-isopropyl-1,2,4-triazol-3-yl)-2-pyridyl]imidazolidin-2-one] |
| 13.7 ± 6.57 | 100 | 735 | 107 | CC(C)n1cnnc1-c1cccc(N2CCN(CCc3cnc(C4CC4)nc3)C2=O)n1 [Example 4, 1-[2-(2-Cyclopropylpyrimidin-5-yl)ethyl]-3-[6-(4-isopropyl-1,2,4-triazol-3-yl)-2-pyridyl]imidazolidin-2-one] |
| 64.4 ± 58.5 | 100 | 3770 | 100 | CC(C)n1cnnc1-c1cccc(N2CCNC2=O)n1 [Example 5, 1-(6-(4-Isopropyl-4H-1,2,4-triazol-3-yl)pyridin-2-yl)imidazolidin-2-one] |
| 88.3 ± 21.8 | 100 | – | – | Cc1ncc(CCN2CCN(c3cccc(-c4nncn4C(C)C)n3)C2=O)cn1 [Example 6, 1-[6-(4-Isopropyl-1,2,4-triazol-3-yl)-2-pyridyl]-3-[2-(2-methylpyrimidin-5-yl)ethyl]imidazolidin-2-one] |
| 16.6 ± 3.16 | 100 | 520 | 100 | Cc1ccc(CCN2CCN(c3cccc(-c4nncn4C(C)C)n3)C2=O)cn1 [Example 7, 1-[6-(4-Isopropyl-1,2,4-triazol-3-yl)-2-pyridyl]-3-[2-(6-methyl-3-pyridyl)ethyl]imidazolidin-2-one] |

From patent US11124496B2, “Imidazolidine compounds” (Eli Lilly and Company, priority 2017, dated 2021)
